According to ChEMBL document CHEMBL3991601, “The target landscape of clinical kinase drugs” (Science, 2017):
Active and inactive are the calls of the source. Cut-off read from the data, not from the text of the source, for most assays here: actives have a measured Kd and inactives only a lower limit.

What was measured:
[1] = target: T1, ATP-dependent 6-phosphofructokinase, platelet type (Homo sapiens, UniProt Q01813)
T1 sequence (Q01813 whole entry): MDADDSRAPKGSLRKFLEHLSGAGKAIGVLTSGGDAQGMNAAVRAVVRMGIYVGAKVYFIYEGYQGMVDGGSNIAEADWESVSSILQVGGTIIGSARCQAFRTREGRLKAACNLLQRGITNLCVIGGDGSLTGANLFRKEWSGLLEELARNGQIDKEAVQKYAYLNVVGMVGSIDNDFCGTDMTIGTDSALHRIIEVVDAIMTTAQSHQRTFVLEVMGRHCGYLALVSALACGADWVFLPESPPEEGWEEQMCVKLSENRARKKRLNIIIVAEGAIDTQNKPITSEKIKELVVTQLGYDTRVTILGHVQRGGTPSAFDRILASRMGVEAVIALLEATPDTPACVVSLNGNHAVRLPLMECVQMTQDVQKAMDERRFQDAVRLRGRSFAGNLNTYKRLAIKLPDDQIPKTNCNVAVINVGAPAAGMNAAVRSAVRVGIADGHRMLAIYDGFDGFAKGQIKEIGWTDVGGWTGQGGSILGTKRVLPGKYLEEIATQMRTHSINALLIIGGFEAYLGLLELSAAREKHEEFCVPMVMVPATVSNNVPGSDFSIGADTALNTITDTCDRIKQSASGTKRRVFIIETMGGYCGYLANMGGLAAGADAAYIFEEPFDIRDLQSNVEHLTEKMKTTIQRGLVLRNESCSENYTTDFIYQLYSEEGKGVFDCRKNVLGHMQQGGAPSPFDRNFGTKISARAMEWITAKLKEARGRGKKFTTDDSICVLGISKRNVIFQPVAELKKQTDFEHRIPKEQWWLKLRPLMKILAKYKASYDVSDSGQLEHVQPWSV

[2] = target: Serine/threonine-protein kinase 26 (Homo sapiens, UniProt Q9P289)
Serine/threonine-protein kinase 26, sequence (Q9P289 whole entry): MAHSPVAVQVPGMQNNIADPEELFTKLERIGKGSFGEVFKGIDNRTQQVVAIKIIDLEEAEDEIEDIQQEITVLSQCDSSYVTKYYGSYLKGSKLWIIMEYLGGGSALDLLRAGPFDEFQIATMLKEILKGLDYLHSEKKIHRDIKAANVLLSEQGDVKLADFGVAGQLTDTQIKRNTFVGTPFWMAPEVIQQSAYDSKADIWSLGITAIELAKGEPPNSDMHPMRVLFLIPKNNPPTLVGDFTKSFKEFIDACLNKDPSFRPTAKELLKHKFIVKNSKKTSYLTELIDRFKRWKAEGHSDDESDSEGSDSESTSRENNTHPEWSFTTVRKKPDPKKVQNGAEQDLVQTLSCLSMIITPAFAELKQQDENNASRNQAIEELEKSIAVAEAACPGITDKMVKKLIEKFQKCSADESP

[3] = target: T2, Ribosyldihydronicotinamide dehydrogenase [quinone] (Homo sapiens, UniProt P16083)
T2 sequence (P16083 whole entry): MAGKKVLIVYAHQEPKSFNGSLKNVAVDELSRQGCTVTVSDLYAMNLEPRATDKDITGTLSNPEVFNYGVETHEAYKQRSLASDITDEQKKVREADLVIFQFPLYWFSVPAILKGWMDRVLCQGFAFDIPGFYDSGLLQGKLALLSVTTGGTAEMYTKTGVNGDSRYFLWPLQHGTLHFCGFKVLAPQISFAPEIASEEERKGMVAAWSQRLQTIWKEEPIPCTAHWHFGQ

[4] = target: Serine/threonine-protein kinase/endoribonuclease IRE2 (Homo sapiens, UniProt Q76MJ5)
Serine/threonine-protein kinase/endoribonuclease IRE2, sequence (Q76MJ5 whole entry): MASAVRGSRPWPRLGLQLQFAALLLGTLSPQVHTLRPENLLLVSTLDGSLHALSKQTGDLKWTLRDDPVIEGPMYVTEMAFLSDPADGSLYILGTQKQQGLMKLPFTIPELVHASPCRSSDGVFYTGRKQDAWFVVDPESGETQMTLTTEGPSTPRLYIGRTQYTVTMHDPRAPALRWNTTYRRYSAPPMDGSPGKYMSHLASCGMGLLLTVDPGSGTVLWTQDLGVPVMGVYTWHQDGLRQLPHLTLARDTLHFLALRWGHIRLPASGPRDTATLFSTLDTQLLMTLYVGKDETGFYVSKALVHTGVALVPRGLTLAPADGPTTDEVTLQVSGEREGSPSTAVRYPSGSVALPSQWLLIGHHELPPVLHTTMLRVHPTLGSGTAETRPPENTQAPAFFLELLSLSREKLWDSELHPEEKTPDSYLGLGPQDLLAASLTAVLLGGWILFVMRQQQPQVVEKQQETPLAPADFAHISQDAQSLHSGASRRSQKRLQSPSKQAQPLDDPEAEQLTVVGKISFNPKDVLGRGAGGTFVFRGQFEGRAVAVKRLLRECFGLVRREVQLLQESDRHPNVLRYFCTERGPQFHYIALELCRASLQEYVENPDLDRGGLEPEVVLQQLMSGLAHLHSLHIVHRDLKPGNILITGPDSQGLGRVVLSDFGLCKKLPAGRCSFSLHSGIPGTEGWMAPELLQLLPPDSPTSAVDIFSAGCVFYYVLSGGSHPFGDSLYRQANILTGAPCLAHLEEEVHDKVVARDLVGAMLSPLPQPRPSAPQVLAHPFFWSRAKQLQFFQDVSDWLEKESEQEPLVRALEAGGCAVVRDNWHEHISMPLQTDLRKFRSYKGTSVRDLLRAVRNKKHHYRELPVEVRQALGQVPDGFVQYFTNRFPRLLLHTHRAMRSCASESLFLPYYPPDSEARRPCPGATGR

[5] = target: U5 small nuclear ribonucleoprotein 200 kDa helicase (Homo sapiens, UniProt O75643)
U5 small nuclear ribonucleoprotein 200 kDa helicase, sequence (O75643 whole entry): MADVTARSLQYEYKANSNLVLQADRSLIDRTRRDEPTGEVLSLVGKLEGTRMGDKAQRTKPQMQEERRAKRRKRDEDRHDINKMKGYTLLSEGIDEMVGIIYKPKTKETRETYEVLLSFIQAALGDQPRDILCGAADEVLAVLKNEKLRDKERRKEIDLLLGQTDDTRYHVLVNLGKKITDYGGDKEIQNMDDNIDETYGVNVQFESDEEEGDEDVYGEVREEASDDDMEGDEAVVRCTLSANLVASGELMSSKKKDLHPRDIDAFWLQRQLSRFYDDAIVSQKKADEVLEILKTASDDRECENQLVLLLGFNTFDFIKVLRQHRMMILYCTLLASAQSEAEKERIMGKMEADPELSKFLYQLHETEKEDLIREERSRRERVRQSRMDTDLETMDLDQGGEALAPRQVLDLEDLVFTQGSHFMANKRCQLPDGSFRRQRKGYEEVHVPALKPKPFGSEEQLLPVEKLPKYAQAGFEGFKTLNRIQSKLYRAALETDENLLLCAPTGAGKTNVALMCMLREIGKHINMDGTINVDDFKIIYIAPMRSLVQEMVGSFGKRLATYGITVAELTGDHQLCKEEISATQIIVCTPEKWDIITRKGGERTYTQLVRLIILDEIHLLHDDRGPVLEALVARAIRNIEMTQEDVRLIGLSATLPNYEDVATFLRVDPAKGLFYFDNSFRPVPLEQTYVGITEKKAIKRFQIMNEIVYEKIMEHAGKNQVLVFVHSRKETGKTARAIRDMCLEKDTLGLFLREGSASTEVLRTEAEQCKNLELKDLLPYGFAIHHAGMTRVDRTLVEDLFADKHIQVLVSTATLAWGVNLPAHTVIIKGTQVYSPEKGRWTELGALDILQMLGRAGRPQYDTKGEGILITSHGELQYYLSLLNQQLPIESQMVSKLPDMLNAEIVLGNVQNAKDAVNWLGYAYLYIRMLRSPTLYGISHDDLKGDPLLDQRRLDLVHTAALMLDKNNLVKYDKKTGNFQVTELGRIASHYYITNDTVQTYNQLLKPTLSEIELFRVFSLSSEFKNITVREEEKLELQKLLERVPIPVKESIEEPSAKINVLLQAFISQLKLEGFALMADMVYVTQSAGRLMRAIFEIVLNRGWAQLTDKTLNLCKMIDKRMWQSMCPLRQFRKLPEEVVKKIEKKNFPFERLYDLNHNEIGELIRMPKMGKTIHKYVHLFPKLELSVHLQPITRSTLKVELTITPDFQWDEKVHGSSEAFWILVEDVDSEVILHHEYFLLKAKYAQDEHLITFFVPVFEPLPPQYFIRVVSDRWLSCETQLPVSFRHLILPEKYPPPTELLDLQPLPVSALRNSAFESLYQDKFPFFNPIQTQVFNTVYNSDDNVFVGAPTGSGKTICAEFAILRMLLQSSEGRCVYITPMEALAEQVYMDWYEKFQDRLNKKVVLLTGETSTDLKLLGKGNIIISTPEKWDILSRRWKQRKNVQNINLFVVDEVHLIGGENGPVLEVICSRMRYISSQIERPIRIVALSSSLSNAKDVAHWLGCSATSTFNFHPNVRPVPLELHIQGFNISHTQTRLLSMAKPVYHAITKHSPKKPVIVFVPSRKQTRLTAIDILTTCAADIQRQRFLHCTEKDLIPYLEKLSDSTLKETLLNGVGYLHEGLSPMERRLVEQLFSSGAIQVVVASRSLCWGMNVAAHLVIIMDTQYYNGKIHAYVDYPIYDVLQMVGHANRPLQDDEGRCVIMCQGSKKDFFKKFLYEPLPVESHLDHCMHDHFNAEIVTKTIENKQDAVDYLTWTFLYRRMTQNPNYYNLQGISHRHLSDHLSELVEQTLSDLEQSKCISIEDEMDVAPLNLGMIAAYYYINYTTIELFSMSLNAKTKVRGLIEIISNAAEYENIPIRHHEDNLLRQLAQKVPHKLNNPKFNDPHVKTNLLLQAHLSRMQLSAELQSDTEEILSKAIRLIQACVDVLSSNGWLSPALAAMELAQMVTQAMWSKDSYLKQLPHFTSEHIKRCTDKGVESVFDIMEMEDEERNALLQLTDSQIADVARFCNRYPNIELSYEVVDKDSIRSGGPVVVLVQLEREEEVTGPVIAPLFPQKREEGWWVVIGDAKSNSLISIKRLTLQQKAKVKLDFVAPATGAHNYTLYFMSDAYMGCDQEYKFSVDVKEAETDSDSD

[6] = target: Calcium/calmodulin-dependent protein kinase kinase 2 (Homo sapiens, UniProt Q96RR4)
Calcium/calmodulin-dependent protein kinase kinase 2, sequence (Q96RR4 whole entry): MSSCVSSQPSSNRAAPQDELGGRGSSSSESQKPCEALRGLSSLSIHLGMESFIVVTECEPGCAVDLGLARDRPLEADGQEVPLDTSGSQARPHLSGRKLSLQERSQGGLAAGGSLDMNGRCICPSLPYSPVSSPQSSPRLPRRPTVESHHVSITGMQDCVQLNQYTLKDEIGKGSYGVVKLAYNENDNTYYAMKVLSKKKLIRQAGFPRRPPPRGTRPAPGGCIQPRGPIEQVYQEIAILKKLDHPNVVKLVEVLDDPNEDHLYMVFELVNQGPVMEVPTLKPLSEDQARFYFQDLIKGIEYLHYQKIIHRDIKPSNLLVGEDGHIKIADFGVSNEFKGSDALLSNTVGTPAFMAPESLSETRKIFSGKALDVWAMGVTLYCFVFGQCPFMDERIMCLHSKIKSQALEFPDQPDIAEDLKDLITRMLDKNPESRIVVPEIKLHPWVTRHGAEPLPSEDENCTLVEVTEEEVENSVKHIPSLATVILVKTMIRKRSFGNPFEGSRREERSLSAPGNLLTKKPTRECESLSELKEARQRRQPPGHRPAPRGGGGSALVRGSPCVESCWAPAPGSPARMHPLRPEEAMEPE

[7] = target: T3, Serine/threonine-protein kinase TAO3 (Homo sapiens, UniProt Q9H2K8)
T3 sequence (Q9H2K8 whole entry): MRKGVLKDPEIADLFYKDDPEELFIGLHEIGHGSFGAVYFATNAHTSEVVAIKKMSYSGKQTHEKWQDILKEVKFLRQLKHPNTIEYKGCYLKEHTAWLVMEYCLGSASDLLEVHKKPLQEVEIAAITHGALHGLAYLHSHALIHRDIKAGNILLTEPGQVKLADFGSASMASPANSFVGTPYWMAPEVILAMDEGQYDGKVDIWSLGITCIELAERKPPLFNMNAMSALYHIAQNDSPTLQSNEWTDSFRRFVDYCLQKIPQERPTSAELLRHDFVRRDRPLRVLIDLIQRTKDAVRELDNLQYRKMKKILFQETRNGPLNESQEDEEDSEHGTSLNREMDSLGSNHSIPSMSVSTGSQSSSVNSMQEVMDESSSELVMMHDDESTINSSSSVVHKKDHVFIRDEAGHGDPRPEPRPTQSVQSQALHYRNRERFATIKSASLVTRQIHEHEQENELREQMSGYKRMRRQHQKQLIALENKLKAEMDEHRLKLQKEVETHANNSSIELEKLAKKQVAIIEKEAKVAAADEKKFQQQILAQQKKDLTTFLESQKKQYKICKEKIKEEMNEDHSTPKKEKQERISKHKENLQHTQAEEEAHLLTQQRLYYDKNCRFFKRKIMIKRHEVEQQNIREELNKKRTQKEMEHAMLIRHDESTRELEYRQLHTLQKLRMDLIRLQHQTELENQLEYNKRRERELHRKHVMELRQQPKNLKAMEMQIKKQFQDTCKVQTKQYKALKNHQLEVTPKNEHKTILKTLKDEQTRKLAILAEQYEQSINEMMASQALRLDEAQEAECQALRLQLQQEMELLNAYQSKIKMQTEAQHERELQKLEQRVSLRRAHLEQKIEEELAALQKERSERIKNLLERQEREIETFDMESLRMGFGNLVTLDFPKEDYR

[8] = target: ATP-dependent RNA helicase DDX3X (Homo sapiens, UniProt O00571)
[9] = target: Tyrosine-protein kinase Lck (Homo sapiens, UniProt P06239)
Tyrosine-protein kinase Lck, sequence (P06239 whole entry): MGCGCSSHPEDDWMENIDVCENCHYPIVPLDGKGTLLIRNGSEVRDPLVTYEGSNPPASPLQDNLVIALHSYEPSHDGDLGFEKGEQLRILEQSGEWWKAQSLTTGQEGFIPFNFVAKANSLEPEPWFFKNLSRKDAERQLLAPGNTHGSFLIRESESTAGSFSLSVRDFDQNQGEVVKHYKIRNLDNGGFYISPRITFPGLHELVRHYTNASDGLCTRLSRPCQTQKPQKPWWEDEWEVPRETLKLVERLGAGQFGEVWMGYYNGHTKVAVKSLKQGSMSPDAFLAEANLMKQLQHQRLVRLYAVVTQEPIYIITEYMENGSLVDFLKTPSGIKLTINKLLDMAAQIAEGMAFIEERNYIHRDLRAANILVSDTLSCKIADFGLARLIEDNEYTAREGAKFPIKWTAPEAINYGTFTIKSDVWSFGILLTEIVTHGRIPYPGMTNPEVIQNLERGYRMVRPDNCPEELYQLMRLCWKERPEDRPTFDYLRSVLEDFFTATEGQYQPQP
Note: in the data inactive means no Kd found up to 30 µM.

Compound	Kd [1]	Kd [2]	Kd [3]	Kd [4]	Kd [5]	Kd [6]	Kd [7]	Kd [8]	Kd [9]
CN(C)C(=O)c1cc2cnc(Nc3ccc(N4CCNCC4)cn3)nc2n1C1CCCC1 [RIBOCICLIB]	> 30 µM (inactive)	> 30 µM (inactive)	> 30 µM (inactive)	> 30 µM (inactive)	> 30 µM (inactive)	> 30 µM (inactive)	> 30 µM (inactive)	> 30 µM (inactive)	> 30 µM (inactive)
C[C@@H]1CN(Cc2ccc(F)cc2)[C@@H](C)CN1C(=O)c1cc2c(C(=O)C(=O)N(C)C)cn(C)c2cc1Cl [TALMAPIMOD]	> 30 µM (inactive)	> 30 µM (inactive)	9.92 µM (active)	> 30 µM (inactive)	> 30 µM (inactive)	> 30 µM (inactive)	> 30 µM (inactive)	> 30 µM (inactive)	> 30 µM (inactive)
CO[C@H]1C[C@@H]2CC[C@@H](C)[C@@](O)(O2)C(=O)C(=O)N2CCCC[C@H]2C(=O)O[C@H]([C@H](C)C[C@@H]2CC[C@@H](OCCO)[C@H](OC)C2)CC(=O)[C@H](C)/C=C(\C)[C@@H](O)[C@@H](OC)C(=O)[C@H](C)C[C@H](C)/C=C/C=C/C=C/1C [EVEROLIMUS]	> 30 µM (inactive)	> 30 µM (inactive)	> 30 µM (inactive)	> 30 µM (inactive)	> 30 µM (inactive)	> 30 µM (inactive)	> 30 µM (inactive)	> 30 µM (inactive)	> 30 µM (inactive)
Cc1ccc(-n2nc(C(C)(C)C)cc2NC(=O)NCc2cc(F)ccc2Oc2ccc3c(cnn3CCO)c2)cc1 [PEXMETINIB]	> 30 µM (inactive)	> 30 µM (inactive)	> 30 µM (inactive)	> 30 µM (inactive)	> 30 µM (inactive)	> 30 µM (inactive)	> 30 µM (inactive)	> 30 µM (inactive)	> 30 µM (inactive)
CC(=O)Nc1cccc(-n2c(=O)n(C3CC3)c(=O)c3c(Nc4ccc(I)cc4F)n(C)c(=O)c(C)c32)c1 [TRAMETINIB]	> 30 µM (inactive)	> 30 µM (inactive)	> 30 µM (inactive)	> 30 µM (inactive)	> 30 µM (inactive)	> 30 µM (inactive)	> 30 µM (inactive)	> 30 µM (inactive)	> 30 µM (inactive)
COC(=O)N[C@@H](C)CNc1nccc(-c2cn(C(C)C)nc2-c2cc(Cl)cc(NS(C)(=O)=O)c2F)n1 [ENCORAFENIB]	> 30 µM (inactive)	> 30 µM (inactive)	> 30 µM (inactive)	> 30 µM (inactive)	> 30 µM (inactive)	> 30 µM (inactive)	3.32 µM (active)	> 30 µM (inactive)	> 30 µM (inactive)
CCn1c(=O)c(-c2cc[nH]n2)cc2c(C)nc(N)nc21 [VOXTALISIB]	> 30 µM (inactive)	> 30 µM (inactive)	> 30 µM (inactive)	> 30 µM (inactive)	> 30 µM (inactive)	> 30 µM (inactive)	> 30 µM (inactive)	> 30 µM (inactive)	> 30 µM (inactive)
COc1ccc(-c2ccc3c(N4CCOC[C@@H]4C)nc(N4CCOC[C@@H]4C)nc3n2)cc1CO [AZD-8055]	> 30 µM (inactive)	> 30 µM (inactive)	> 30 µM (inactive)	> 30 µM (inactive)	> 30 µM (inactive)	> 30 µM (inactive)	> 30 µM (inactive)	> 30 µM (inactive)	> 30 µM (inactive)
Cn1cc(-c2ccc(F)c(C(F)(F)F)c2)nc1C1CCN(c2ncnc3[nH]ncc23)CC1 [LY-2584702]	> 30 µM (inactive)	> 30 µM (inactive)	> 30 µM (inactive)	> 30 µM (inactive)	> 30 µM (inactive)	> 30 µM (inactive)	> 30 µM (inactive)	> 30 µM (inactive)	> 30 µM (inactive)
CNC(=O)CN1CCC(Oc2cc3c(Nc4cccc(Cl)c4F)ncnc3cc2OC)CC1 [SAPITINIB]	> 30 µM (inactive)	> 30 µM (inactive)	> 30 µM (inactive)	> 30 µM (inactive)	> 30 µM (inactive)	> 30 µM (inactive)	> 30 µM (inactive)	> 30 µM (inactive)	> 30 µM (inactive)
CNC(=O)c1ccc(C)c(-n2c(C)cc(OCc3ccc(F)cc3F)c(Br)c2=O)c1 [PH-797804]	> 30 µM (inactive)	> 30 µM (inactive)	> 30 µM (inactive)	> 30 µM (inactive)	> 30 µM (inactive)	> 30 µM (inactive)	> 30 µM (inactive)	> 30 µM (inactive)	> 30 µM (inactive)

Now from value to compound:

Kd [1]	Kd [2]	Kd [3]	Kd [4]	Kd [5]	Kd [6]	Kd [7]	Kd [8]	Kd [9]	Compound
> 30 µM (inactive)	> 30 µM (inactive)	> 30 µM (inactive)	> 30 µM (inactive)	> 30 µM (inactive)	> 30 µM (inactive)	> 30 µM (inactive)	> 30 µM (inactive)	> 30 µM (inactive)	O=C1NC(=O)/C(=C/c2ccc3nccc(-c4ccncc4)c3c2)S1 [GSK-1059615]
> 30 µM (inactive)	> 30 µM (inactive)	0.323 µM (active)	> 30 µM (inactive)	> 30 µM (inactive)	> 30 µM (inactive)	> 30 µM (inactive)	> 30 µM (inactive)	> 30 µM (inactive)	Cn1cc(-c2ccc3nnc(C(F)(F)c4ccc5ncccc5c4)n3n2)cn1 [JNJ-38877605]
> 30 µM (inactive)	> 30 µM (inactive)	> 30 µM (inactive)	> 30 µM (inactive)	> 30 µM (inactive)	> 30 µM (inactive)	> 30 µM (inactive)	> 30 µM (inactive)	> 30 µM (inactive)	CC(C)Nc1cc(-c2c[nH]c(C(=O)N[C@H](CO)c3cccc(Cl)c3)c2)c(Cl)cn1 [ULIXERTINIB]
> 30 µM (inactive)	> 30 µM (inactive)	> 30 µM (inactive)	> 30 µM (inactive)	> 30 µM (inactive)	> 30 µM (inactive)	> 30 µM (inactive)	> 30 µM (inactive)	> 30 µM (inactive)	O=C(Nc1ccc(-c2ccnc(Nc3ccc(N4CCOCC4)cc3)n2)cc1)C1CCCN1 (stereo not drawn) [XL-019]
> 30 µM (inactive)	> 30 µM (inactive)	> 30 µM (inactive)	> 30 µM (inactive)	> 30 µM (inactive)	> 30 µM (inactive)	> 30 µM (inactive)	> 30 µM (inactive)	> 30 µM (inactive)	N[C@@H]1CCCN(c2c(/C=C3\SC(=O)NC3=O)cccc2-c2ccccc2)C1
> 30 µM (inactive)	> 30 µM (inactive)	> 30 µM (inactive)	> 30 µM (inactive)	> 30 µM (inactive)	> 30 µM (inactive)	> 30 µM (inactive)	> 30 µM (inactive)	> 30 µM (inactive)	CNC(=O)c1cc(Oc2ccc(NC(=O)Nc3ccc(Cl)c(C(F)(F)F)c3)c(F)c2)ccn1 [REGORAFENIB]
